Measurements taken from article PMC12951562, “SH2scan: Mapping SH2 Domain-Ligand Binding Selectivity for Inhibitors and Degraders” (Journal of Medicinal Chemistry, 2026).
Where two headings read alike, the source gives them in different places. Non-standard residues stand in square brackets, D forms with d. Residues, ends and D or L forms follow the SMILES beside them. *: point of attachment. pY = N[C@@H](Cc1ccc(OP(=O)(O)O)cc1)C(=O)O; Caffeoyl = O=C(/C=C/c1ccc(O)c(O)c1)*

What was measured:
Assay in all cases: biochemical
Assay type in all cases: binding
[1] = target: T1, SOCS1 (Homo sapiens, UniProt O15524); settings: for remaining activity at 10 µM: read-out: percent of DMSO vehicle control
T1 construct: made in house; host or cells: HEK293 (transient transfection), unpurified extract
T1 sequence (O15524 1-211): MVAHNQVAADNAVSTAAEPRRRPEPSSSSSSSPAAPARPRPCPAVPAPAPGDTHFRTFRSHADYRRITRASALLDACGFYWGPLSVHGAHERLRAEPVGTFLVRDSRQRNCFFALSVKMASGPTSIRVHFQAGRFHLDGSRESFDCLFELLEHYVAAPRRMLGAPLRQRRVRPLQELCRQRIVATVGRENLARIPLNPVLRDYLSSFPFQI

[2] = target: T2, GRB10 (Homo sapiens, UniProt Q13322)
T2 construct: the DNA-tagged SH2 domain concentrations used in this study were <0.1 nM; made in house; host or cells: HEK293 (transient transfection; unpurified extract)
T2 sequence (Q13322 493-574 limits assumed): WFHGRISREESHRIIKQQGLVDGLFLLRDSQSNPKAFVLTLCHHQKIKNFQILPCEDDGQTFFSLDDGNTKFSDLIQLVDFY

[3] = target: T3, GRAP (Homo sapiens, UniProt Q13588)
T3 construct: the DNA-tagged SH2 domain concentrations used in this study were <0.1 nM; made in house; host or cells: HEK293 (transient transfection; unpurified extract)

[4] = target: T4, BRK (Homo sapiens, UniProt Q13882); settings: for remaining activity at 10 µM: read-out: percent of DMSO vehicle control
T4 construct: the DNA-tagged SH2 domain concentrations used in this study were <0.1 nM; made in house; host or cells: HEK293 (transient transfection; unpurified extract)

[5] = target: T5, SHC2 (Homo sapiens, UniProt P98077); settings: for remaining activity at 10 µM: read-out: percent of DMSO vehicle control
T5 construct: made in house; host or cells: HEK293 (transient transfection), unpurified extract
T5 sequence (P98077 1-582): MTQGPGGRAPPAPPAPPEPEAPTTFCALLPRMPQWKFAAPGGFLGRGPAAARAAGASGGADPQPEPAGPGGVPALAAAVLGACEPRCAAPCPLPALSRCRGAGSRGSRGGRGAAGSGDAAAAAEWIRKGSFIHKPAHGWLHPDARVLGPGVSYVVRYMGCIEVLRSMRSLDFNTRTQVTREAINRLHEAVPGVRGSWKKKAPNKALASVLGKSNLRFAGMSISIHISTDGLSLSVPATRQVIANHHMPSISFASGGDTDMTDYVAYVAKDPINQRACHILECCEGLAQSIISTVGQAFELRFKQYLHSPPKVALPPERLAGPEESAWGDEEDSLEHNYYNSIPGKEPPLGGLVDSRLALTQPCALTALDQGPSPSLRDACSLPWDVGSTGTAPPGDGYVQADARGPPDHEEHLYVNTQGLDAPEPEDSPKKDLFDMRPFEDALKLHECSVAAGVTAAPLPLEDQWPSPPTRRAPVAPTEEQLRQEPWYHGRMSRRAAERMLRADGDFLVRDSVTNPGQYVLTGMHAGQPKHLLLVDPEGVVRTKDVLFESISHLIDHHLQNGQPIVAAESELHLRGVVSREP

[6] = target: T6, PIK3R1(SH2dom.N-term.) (Homo sapiens, UniProt P27986); settings: for remaining activity at 10 µM: read-out: percent of DMSO vehicle control
T6 construct: SH2dom.N-term. denotes SH2 domain closest to N-terminus of protein; made in house; host or cells: HEK293 (transient transfection, unpurified extract)

[7] = target: T7, HSH2D (Homo sapiens, UniProt Q96JZ2)
T7 construct: the DNA-tagged SH2 domain concentrations used in this study were <0.1 nM; made in house; host or cells: HEK293 (transient transfection, unpurified extract)
T7 sequence (Q96JZ2 34-125 limits assumed): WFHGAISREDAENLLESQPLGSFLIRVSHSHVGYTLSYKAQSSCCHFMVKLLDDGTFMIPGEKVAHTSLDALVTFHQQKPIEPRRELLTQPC

[8] = target: T8, NCK2 (Homo sapiens, UniProt O43639); settings: for remaining activity at 10 µM: read-out: percent of DMSO vehicle control
T8 construct: the DNA-tagged SH2 domain concentrations used in this study were <0.1 nM; made in house; host or cells: HEK293 (transient transfection, unpurified extract)
T8 sequence (O43639 285-380 limits assumed): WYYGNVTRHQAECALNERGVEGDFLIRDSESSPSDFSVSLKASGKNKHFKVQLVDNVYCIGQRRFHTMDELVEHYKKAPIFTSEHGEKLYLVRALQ

[9] = target: T9, SH2D1B (Homo sapiens, UniProt O14796); settings: for remaining activity at 10 µM: read-out: percent of DMSO vehicle control
T9 construct: made in house; host or cells: HEK293 (transient transfection), unpurified extract
T9 sequence (O14796 1-132): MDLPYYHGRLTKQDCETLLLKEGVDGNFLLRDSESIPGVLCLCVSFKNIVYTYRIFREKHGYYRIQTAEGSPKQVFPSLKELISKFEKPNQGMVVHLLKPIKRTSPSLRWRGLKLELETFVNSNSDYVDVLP

[10] = target: T10, RASA1(SH2dom.N-term.) (Homo sapiens, UniProt P20936); settings: for remaining activity at 10 µM: read-out: percent of DMSO vehicle control
T10 construct: SH2dom.N-term. denotes SH2 domain closest to N-terminus of protein; made in house; host or cells: HEK293 (transient transfection), unpurified extract
T10 sequence (P20936 181-272 limits assumed): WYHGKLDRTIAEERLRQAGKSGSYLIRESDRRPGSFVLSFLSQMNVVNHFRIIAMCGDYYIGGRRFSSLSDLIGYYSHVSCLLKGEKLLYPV

[11] = target: T11, SH3BP2 (Homo sapiens, UniProt P78314); settings: for remaining activity at 10 µM: read-out: percent of DMSO vehicle control
T11 construct: made in house; host or cells: HEK293 (transient transfection), unpurified extract
T11 sequence (P78314 1-561): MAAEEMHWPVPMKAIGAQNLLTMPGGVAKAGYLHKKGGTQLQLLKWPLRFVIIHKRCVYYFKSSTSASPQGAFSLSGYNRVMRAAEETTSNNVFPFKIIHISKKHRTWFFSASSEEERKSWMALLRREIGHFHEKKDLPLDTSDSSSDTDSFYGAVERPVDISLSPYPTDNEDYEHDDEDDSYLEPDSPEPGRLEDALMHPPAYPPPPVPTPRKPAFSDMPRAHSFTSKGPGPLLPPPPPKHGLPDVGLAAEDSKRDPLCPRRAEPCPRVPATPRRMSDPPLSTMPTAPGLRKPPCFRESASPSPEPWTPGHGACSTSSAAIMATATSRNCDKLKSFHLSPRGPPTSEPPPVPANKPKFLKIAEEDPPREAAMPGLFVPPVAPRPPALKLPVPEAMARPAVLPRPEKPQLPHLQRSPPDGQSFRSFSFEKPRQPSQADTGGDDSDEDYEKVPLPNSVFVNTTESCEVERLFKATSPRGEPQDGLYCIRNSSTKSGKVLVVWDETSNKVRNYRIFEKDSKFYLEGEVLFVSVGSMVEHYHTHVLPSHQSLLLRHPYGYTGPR

[12] = read-out: percent of DMSO vehicle control
[13] = primary screen, 10 μM, read-out: percent of DMSO vehicle control

T6 sequence (P27986 333-428 limits assumed): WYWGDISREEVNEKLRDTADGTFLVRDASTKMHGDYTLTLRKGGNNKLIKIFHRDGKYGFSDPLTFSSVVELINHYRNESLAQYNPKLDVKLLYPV
T4 sequence (Q13882 78-170 limits assumed): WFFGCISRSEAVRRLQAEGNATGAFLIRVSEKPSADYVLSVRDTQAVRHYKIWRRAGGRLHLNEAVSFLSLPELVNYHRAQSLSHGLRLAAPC
T3 sequence (Q13588 60-154 limits assumed): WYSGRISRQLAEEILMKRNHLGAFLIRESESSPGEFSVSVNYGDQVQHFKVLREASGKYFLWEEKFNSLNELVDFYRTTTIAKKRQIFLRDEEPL

With `CC[C@H](C)[C@H](NC(=O)[C@H](CCC(=O)O)NC(=O)[C@H](CCC(=O)O)NC(=O)[C@H](Cc1ccc(OP(=O)(O)O)cc1)NC(C)=O)C(=O)N[C@@H](CCC(=O)O)C(N)=O` [Ac-pYEEIE-NH2] (Ac-[pY]EEIE-NH2) the “percent of DMSO vehicle control” value ([1]; primary screen, 10 μM) was 128.1%, the “percent of DMSO vehicle control” value ([2]; primary screen, 10 μM) was 155.2% and the “percent of DMSO vehicle control” value ([3]; primary screen, 10 μM) was 112.9%. For the same compound, the “percent of DMSO vehicle control” value ([4]; primary screen, 10 μM) was 101.4%, the “percent of DMSO vehicle control” value ([5]; primary screen, 10 μM) was 138.0% and the “percent of DMSO vehicle control” value ([6]; primary screen, 10 μM) was 87.7%. The “percent of DMSO vehicle control” value ([7]; primary screen, 10 μM) was 127.4%, the “percent of DMSO vehicle control” value ([8]; primary screen, 10 μM) was 74.9% and the “percent of DMSO vehicle control” value ([9]; primary screen, 10 μM) was 47.1±1.3%. For the same compound, the “percent of DMSO vehicle control” value ([10]; primary screen, 10 μM) was 121.2% and the “percent of DMSO vehicle control” value ([11]; primary screen, 10 μM) was 90.0±2.1%.

In the case of `CC(=O)N[C@@H](Cc1ccc(CP(=O)(O)O)cc1)C(=O)NC1(C(=O)N[C@@H](CC(N)=O)C(=O)NCCCc2c(O)ccc3ccccc23)CCCCC1` [CGP78850], the remaining activity at 10 µM [1] is reported as 129 ± 11.7%, the percent of DMSO vehicle control at 10 µM [2, 12] is reported as 88.5 ± 13.4% and the Kd [3] is reported as 3.3 nM. For the same compound, the percent of DMSO vehicle control at 10 µM [3, 12] was 0%, the remaining activity at 10 µM [4] was 117 ± 12.5% and the remaining activity at 10 µM [5] was 100 ± 8.5%. For the same compound, the remaining activity at 10 µM [6] was 109 ± 5.7%, the Kd [7] was 1600 ± 350 nM and the percent of DMSO vehicle control at 10 µM [7, 12] was 8.1 ± 6.6%. For the same compound, the remaining activity at 10 µM [8] was 111 ± 23.7%, the remaining activity at 10 µM [9] was 77.3 ± 6.6% and the remaining activity at 10 µM [10] was 47.6 ± 2.5%. The remaining activity at 10 µM [11] was 77.8 ± 0.5%.

`CC[C@H](C)[C@H](NC(=O)[C@H](CCC(=O)O)NC(=O)[C@H](CCC(=O)O)NC(=O)[C@H](Cc1ccc(OP(=O)(O)O)cc1)NC(=O)/C=C/c1ccc(O)c(O)c1)C(=O)N[C@@H](CCC(=O)O)C(=O)O` [Caffeic acid-pYEEIE] (Caffeoyl-[pY]EEIE-OH) gave a Kd [1] of 30 ± 6.5 nM, a remaining activity at 10 µM [1] of 1.1 ± 0.1% and a Kd [2] of 480 ± 79 nM. For the same compound, the percent of DMSO vehicle control at 10 µM [2, 12] was 0.7 ± 0.9%, the percent of DMSO vehicle control at 10 µM [3, 12] was 109.9 ± 0.3% and the Kd [4] was 24 ± 3.9 nM. It also gave a remaining activity at 10 µM [4] of 0%, a Kd [5] of 580 ± 330 nM and a remaining activity at 10 µM [5] of 0.3 ± 0.1%. It also gave a Kd [6] of 140 ± 17 nM, a remaining activity at 10 µM [6] of 0.7 ± 0.1% and a percent of DMSO vehicle control at 10 µM [7, 12] of 80.3 ± 18.6%. The Kd [8] was 210 ± 59 nM, the remaining activity at 10 µM [8] was 2.8 ± 3.1% and the Kd [9] was 65 ± 14 nM. It also gave a remaining activity at 10 µM [9] of 12.9 ± 2.3%, a Kd [10] of 230 ± 410 nM and a remaining activity at 10 µM [10] of 0.1%. It also gave a Kd [11] of 1020 ± 600 nM and a remaining activity at 10 µM [11] of 0.9 ± 0.3%.

With `O=C(CCl)Nc1cccc(CNC(=O)[C@H](Cc2ccc(OP(=O)(O)O)cc2)NC(=O)Cc2ccc(F)cc2)c1` [MN551] the remaining activity at 10 µM ([1]; primary screen, 10 μM) was 38.1 ± 7.5%, the remaining activity at 10 µM [2, 13] was 61.8% and the remaining activity at 10 µM [3, 13] was 48.7%. For the same compound, the remaining activity at 10 µM ([4]; primary screen, 10 μM) was 4.7 ± 0.7%, the remaining activity at 10 µM ([5]; primary screen, 10 μM) was 82.9 ± 1.7% and the remaining activity at 10 µM ([6]; primary screen, 10 μM) was 99.8 ± 1.6%. It also gave a Kd ([7]; dose-response, read-out: KD) of 8700 nM, a remaining activity at 10 µM [7, 13] of 3 ± 0.2% and a remaining activity at 10 µM ([8]; primary screen, 10 μM) of 81.5 ± 3%. For the same compound, the remaining activity at 10 µM ([9]; primary screen, 10 μM) was 63.2 ± 6.6%, the remaining activity at 10 µM ([10]; primary screen, 10 μM) was 94.2 ± 3% and the remaining activity at 10 µM ([11]; primary screen, 10 μM) was 109%.
